Measured values from PubChem BioAssay AID624258 (Broad Institute, 2012).
Calls of active or inactive are those of the source. How the calls were made is not given here.

System: S. cerevisiae SKN7-toxicity growth rescue, plate reader
Experiment: Yeast SKN7 toxicity growth rescue counterscreen, Saccharomyces cerevisiae, plate reader, dose confirmatory (AID 624258);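 further: growth read after three days of incubation at 30 °C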

Row | SMILES | AC40
1 | CC(C)(C)c1cc(-c2nc(N)nc(N)n2)c(O)c(C(C)(C)C)c1 | 1.92 µM
2 | O=c1c2c(-c3ccc(Cl)cc3)csc2ncn1/N=C/c1cccc([N+](=O)[O-])c1O | 1.23 µM
3 | O=C(O)c1ccc(N/N=C/C2=C(N3CCOCC3)C(=C\c3ccccc3)/CC2)cc1 | 5.01 µM
4 | Cc1[nH]n(-c2ccccc2)c(=O)c1/C=N/Nc1nncc(-c2ccccc2)n1 | 1.11 µM
5 | Cc1cccc(C(=O)NC(=S)NNC(=O)Cc2ccccc2)c1 | 1.22 µM
6 | COc1ccc(N=N/C(=C\O)C(=O)c2cccs2)cc1 | 1.32 µM
7 | CC1CC(C)CN(C(=O)c2cccc(S(=O)(=O)Nc3cc(C(F)(F)F)ccc3Cl)c2)C1 (stereo unspecified) | 16.8 µM
8 | N#C/C(=C\c1cccnc1)c1ccc(Br)cc1 | 15.9 µM
9 | O=c1c(=Nc2ccccc2O)c(=O)c2ccccc12 | 1.06 µM
10 | CC(C)(C)c1ccc(-n2nc(C#N)c(Cl)cc2=O)cc1 | 0.292 µM
11 | Cc1ccc(Nc2c(-c3ccccc3O)nc3cnccn23)cc1 | 8.08 µM
12 | O=c1nc(N/N=C/c2ccccn2)cn[nH]1 | 4.69 µM
13 | Cc1onc(-c2c(Cl)cccc2Cl)c1C(=O)N/N=C(\N)COc1ccc(Cl)cc1 | 2.55 µM
14 | Cc1nc(SCC(=O)N2CCN(c3ccccc3)CC2)c2oc3ccccc3c2n1 | 3.53 µM
15 | Cc1nnc(N/N=C/c2cccc(OCc3ccc(Cl)c(Cl)c3)c2)n1N | 3.28 µM
16 | O=C(CSc1ccc(-c2ccccn2)nn1)NC1CCCC1 | 7.77 µM
17 | O=[N+]([O-])c1ccc(O)c(/C=N/Nc2ccccn2)c1 | 1.42 µM
18 | O=C1C=C(Nc2ccccc2O)c2ccccc2C1=O | 12.6 µM
19 | O=C1c2ccccc2NC(c2ccc(-c3ccc(F)cc3)o2)N1O (stereo unspecified) | 14 µM
20 | CCCOc1ccc(N2C(=O)CC(N3CCC(C(=O)OCC)CC3)C2=O)cc1 (stereo unspecified) | 6.17 µM
21 | Cc1cc(C)c(C(N)=O)c(Nc2cccc3ccccc23)n1 | > 19.5 µM (inactive)
22 | O=C(C1CC2C=CC1C2)N1CCN(c2ccccc2)CC1 (stereo unspecified) | 3.11 µM
23 | C(=N\Nc1nncc2ccccc12)/c1ccccn1 | 3.27 µM

Row | SMILES | AC40
24 | Clc1cccc(CON/C=N/c2ncnc3sccc23)c1 | 3.8 µM
25 | Cc1ccccc1CSCCNC(=O)COc1ccc(Cl)cc1 | 7.18 µM
26 | COC(=O)c1ccc(N2C(=O)CC(N(C)CCc3ccc(OC)c(OC)c3)C2=O)cc1 (stereo unspecified) | 8.6 µM
27 | CCCOc1ccc(C(=O)NNC(=S)NC(=O)CC)cc1 | 1.48 µM
28 | CNc1ccc(C=C2C=Cc3ccccc32)cc1 | 0.998 µM
29 | Nc1c(Cl)ncnc1N/N=C/c1ccc2ccccc2n1 | 4.34 µM
30 | CCc1cc(C(N)=O)c(NC(=O)c2ccc(OC)cc2)s1 | 6.02 µM
31 | Cc1ccc2c(C)c3ccc4ccccc4c3c[n+]2c1 | 0.247 µM
32 | O/C(=C\c1nc2ccccc2nc1/C=C(\O)c1ccccc1)c1ccccc1 | 4.59 µM
33 | CN(C1=C(NC(=O)c2ccc(Cl)cc2)C(=O)c2ccccc2C1=O)c1ccccc1 | 4.87 µM
34 | COc1ccc2c(c1)OC[C@H]1[C@H]2N2C(=O)c3cc(Cl)ccc3NC(=O)[C@@]2(C)[C@H]1c1ccccc1 | 10.8 µM
35 | Cc1cc(/C=N/n2cnnc2)c(C)n1-c1ccc(OCc2ccc(F)cc2)cc1 | 0.516 µM
36 | COc1cc(OC)cc(N2C(=O)CC(N3CCC(C(=O)N4CCCCC4)CC3)C2=O)c1 (stereo unspecified) | 13.7 µM
37 | Cc1ccccc1N1CCN(C2=NC(=O)/C(=C\c3cccs3)S2)CC1 | 4.83 µM
38 | O=C(N[C@@H](Cc1ccccc1)C(=O)CCl)OCc1ccccc1 | 1.14 µM
39 | Cc1[nH]n(-c2cccc3ccccc23)c(=O)c1/C=N/NC(=O)c1cccc([N+](=O)[O-])c1 | 0.738 µM
40 | CC(C)(C)n1nc(-c2ccc(F)cc2)c2c(N)ncnc21 | 15.4 µM
41 | C(=N\NC1=Nc2cccc3cccc1c23)/c1ccccn1 | 5.47 µM
42 | CC1=C(C)/C(=N\OS(=O)(=O)c2ccc(C)cc2)C=CC1=O | 1.11 µM
43 | CN(C)c1ccc(-n2cccc2/C=C/[N+](=O)[O-])cc1 | 1.16 µM
44 | Cc1ccc(C(C)(C)C)cc1S(=O)(=O)Nc1ncnc2sccc12 | 1.15 µM
45 | Cc1cc2oc(=O)cc(-c3ccccc3)c2c(C)c1-c1ccc(CO)cc1 | 4.67 µM
46 | O=Nc1c(O)n(Cc2ccc(Cl)c(Cl)c2)c2ccccc12 | 8.74 µM
